Data taken from ChEMBL document CHEMBL5465560, “Selectivity Literature for EUbOPEN Chemogenomic Library” (2024).
Residue numbers refer to the chain shown, from its start.

Experiments:
Type in all cases: cell-based
Conditions in all cases: at 1 µM
[1] = system: T1, Receptor-type tyrosine-protein kinase FLT3 (Homo sapiens), P36888 [N841I]; assay: (§1) Selectivity interaction (Ambit KINOMEscan and KiNATiv profiling in Jurkat cells) EUB0000090b FLT3
T1 sequence (whole entry): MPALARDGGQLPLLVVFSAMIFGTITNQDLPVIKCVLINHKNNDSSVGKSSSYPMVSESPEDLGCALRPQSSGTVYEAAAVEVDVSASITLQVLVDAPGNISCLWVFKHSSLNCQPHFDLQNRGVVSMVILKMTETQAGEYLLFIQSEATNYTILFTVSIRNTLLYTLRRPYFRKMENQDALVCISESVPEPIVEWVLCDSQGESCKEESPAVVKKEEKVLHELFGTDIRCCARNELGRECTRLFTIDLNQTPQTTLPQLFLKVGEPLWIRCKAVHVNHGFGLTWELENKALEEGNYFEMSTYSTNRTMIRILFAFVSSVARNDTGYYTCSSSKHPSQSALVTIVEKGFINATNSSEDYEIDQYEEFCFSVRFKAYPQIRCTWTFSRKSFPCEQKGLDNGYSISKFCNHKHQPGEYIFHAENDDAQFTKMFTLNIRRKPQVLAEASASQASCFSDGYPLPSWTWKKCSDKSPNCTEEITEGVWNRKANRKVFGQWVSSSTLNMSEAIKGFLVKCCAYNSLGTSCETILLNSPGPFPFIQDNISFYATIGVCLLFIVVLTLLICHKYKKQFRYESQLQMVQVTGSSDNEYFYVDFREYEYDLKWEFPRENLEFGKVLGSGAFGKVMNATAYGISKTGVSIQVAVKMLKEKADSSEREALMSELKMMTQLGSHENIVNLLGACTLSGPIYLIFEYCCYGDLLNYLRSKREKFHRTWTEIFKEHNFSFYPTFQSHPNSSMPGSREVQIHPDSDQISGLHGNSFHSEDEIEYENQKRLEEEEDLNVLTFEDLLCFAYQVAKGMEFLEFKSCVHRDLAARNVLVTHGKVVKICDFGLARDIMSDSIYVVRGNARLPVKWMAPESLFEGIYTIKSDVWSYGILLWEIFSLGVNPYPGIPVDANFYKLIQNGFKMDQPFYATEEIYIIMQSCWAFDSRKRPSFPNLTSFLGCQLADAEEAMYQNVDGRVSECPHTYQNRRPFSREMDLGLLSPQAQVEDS

[2] = system: Receptor-type tyrosine-protein kinase FLT3 (Homo sapiens), P36888 [UNDEFINED MUTATION]; assay: as §1
[3] = system: T2, Receptor-type tyrosine-protein kinase FLT3 (Homo sapiens), P36888 [D835Y]; assay: as §1
T2 sequence (whole entry): T1 sequence (whole entry) with D835Y, I841N

[4] = system: T3, Receptor-type tyrosine-protein kinase FLT3 (Homo sapiens), P36888 [K663Q]; assay: as §1
T3 sequence (whole entry): T1 sequence (whole entry) with K663Q, I841N

## CN(C)C/C=C/C(=O)Nc1ccc(C(=O)N2CCCC(Nc3ncc(Cl)c(-c4c[nH]c5ccccc45)n3)C2)cc1 (centres undefined)
[1]
  % of control: 89%
[2]
  % of control: 86%
[3]
  % of control: 76%
[4]
  % of control: 84%
